Molecular target: ER (Homo sapiens (Human), UniProt P03372)
Test: Western blot analysis (Compounds B1-B278)
Format: cell-based
Details: ER degradation by traditional Western blot; DC50 classes
Outline: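 Relative target-protein levels come from densitometry of immunoblots, normalized to GAPDH. Lysates from treated cells were prepared in RIPA buffer (pH 7.6) containing protease inhibitors, and equal protein amounts, checked by BCA, were separated on 10% gels and blotted onto PVDF.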

Chain of ER (P03372 whole entry): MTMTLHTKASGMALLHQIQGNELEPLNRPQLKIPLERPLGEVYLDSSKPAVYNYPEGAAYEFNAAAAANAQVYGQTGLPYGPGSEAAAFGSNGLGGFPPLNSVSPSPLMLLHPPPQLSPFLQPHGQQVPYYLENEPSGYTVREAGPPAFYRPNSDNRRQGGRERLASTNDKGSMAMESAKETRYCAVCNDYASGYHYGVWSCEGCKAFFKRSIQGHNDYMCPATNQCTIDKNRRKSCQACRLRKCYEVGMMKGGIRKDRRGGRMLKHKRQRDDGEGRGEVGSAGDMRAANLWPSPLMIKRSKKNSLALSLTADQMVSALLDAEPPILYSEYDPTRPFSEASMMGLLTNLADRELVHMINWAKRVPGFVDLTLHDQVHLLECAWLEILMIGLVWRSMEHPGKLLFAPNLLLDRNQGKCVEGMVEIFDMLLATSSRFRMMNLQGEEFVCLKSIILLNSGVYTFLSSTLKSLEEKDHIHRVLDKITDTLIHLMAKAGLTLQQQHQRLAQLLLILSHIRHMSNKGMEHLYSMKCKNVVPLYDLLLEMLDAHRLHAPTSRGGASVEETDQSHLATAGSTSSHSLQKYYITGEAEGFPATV

Compound | Traditional Western Degradation Potency
C[C@@H]1Cc2c([nH]c3ccccc23)[C@@H](c2c(F)cc(N3CCC(N4CC(C(=O)N5Cc6cc7c(cc6C5)C(=O)N(C5CCC(=O)NC5=O)C7)C4)CC3)cc2F)N1CC(F)F (stereo partly drawn) [Compound B60, 3-(6-(1-(1-(4-((1R,3R)-2-(2,2-difluoroethyl)-3-methyl-2,3,4,9-tetrahydro-1H-pyrido[3,4-b]indol-1-yl)-3,5-difluorophenyl)piperidin-4-yl)azetidine-3-carbonyl)-1-oxo-3,5,6,7-tetrahydropyrrolo[3,4-f]isoindol-2(1H)-yl)piperidine-2,6-dione] | B (“B”: 10-100 nM)
C[C@@H]1Cc2c([nH]c3ccccc23)[C@@H](c2c(F)cc(C3CCC(CN4CCC(N5Cc6cc7c(cc6C5)C(=O)N(C5CCC(=O)NC5=O)C7=O)CC4)CC3)cc2F)N1CC(F)F (stereo partly drawn) [Compound B82, 6-(1-((4-(4-((1R,3R)-2-(2,2-difluoroethyl)-3-methyl-2,3,4,9-tetrahydro-1H-pyrido[3,4-b]indol-1-yl)-3,5-difluorophenyl)cyclohexyl)methyl)piperidin-4-yl)-2-(2,6-dioxopiperidin-3-yl)-6,7-dihydropyrrolo[3,4-f]isoindole-1,3(2H,5H)-dione] | C (“C”: >100 nM)
C[C@@H]1Cc2c([nH]c3ccccc23)[C@@H](c2c(F)cc(C3CCC(C(=O)N4CC(N5Cc6cc7c(cc6C5)C(=O)N(C5CCC(=O)NC5=O)C7=O)C4)CC3)cc2F)N1CC(F)F (stereo partly drawn) [Compound B80, 6-(1-(4-(4-((1R,3R)-2-(2,2-difluoroethyl)-3-methyl-2,3,4,9-tetrahydro-1H-pyrido[3,4-b]indol-1-yl)-3,5-difluorophenyl)cyclohexane-1-carbonyl)azetidin-3-yl)-2-(2,6-dioxopiperidin-3-yl)-6,7-dihydropyrrolo[3,4-f]isoindole-1,3(2H,5H)-dione] | C (“C”: >100 nM)
C[C@@H]1Cc2c([nH]c3ccccc23)[C@@H](c2c(F)cc(N3CC(CC(=O)N4CC(N5Cc6cc7c(cc6C5)C(=O)N(C5CCC(=O)NC5=O)C7)C4)C3)cc2F)N1CC(F)F (stereo partly drawn) [Compound B43, 3-(6-(1-(2-(1-(4-((1R,3R)-2-(2,2-difluoroethyl)-3-methyl-2,3,4,9-tetrahydro-1H-pyrido[3,4-b]indol-1-yl)-3,5-difluorophenyl)azetidin-3-yl)acetyl)azetidin-3-yl)-1-oxo-3,5,6,7-tetrahydropyrrolo[3,4-f]isoindol-2(1H)-yl)piperidine-2,6-dione] | B (“B”: 10-100 nM)
C[C@@H]1Cc2c([nH]c3ccccc23)[C@@H](c2c(F)cc(N3CCC(CN4Cc5cc6c(cc5C4)C(=O)N(C4CCC(=O)NC4=O)C6)CC3)cc2F)N1CC(F)F (stereo partly drawn) [Compound B73, 3-(6-((1-(4-((1R,3R)-2-(2,2-difluoroethyl)-3-methyl-2,3,4,9-tetrahydro-1H-pyrido[3,4-b]indol-1-yl)-3,5-difluorophenyl)piperidin-4-yl)methyl)-1-oxo-3,5,6,7-tetrahydropyrrolo[3,4-f]isoindol-2(1H)-yl)piperidine-2,6-dione] | C (“C”: >100 nM)
C[C@@H]1Cc2c([nH]c3ccccc23)[C@@H](c2c(F)cc(C3CCC(C(=O)N4CCC(N5Cc6cc7c(cc6C5)C(=O)N(C5CCC(=O)NC5=O)C7=O)CC4)CC3)cc2F)N1CC(F)F (stereo partly drawn) [Compound B77, 6-(1-(4-(4-((1R,3R)-2-(2,2-difluoroethyl)-3-methyl-2,3,4,9-tetrahydro-1H-pyrido[3,4-b]indol-1-yl)-3,5-difluorophenyl)cyclohexane-1-carbonyl)piperidin-4-yl)-2-(2,6-dioxopiperidin-3-yl)-6,7-dihydropyrrolo[3,4-f]isoindole-1,3(2H,5H)-dione] | A (“A”: <10 nM)
C[C@@H]1Cc2c([nH]c3ccccc23)[C@@H](c2c(F)cc(N3CCC(C(=O)N4CCC(CN5Cc6cc7c(cc6C5)C(=O)N(C5CCC(=O)NC5=O)C7=O)CC4)CC3)cc2F)N1CC(F)F (stereo partly drawn) [Compound B53, 6-((1-(1-(4-((1R,3R)-2-(2,2-difluoroethyl)-3-methyl-2,3,4,9-tetrahydro-1H-pyrido[3,4-b]indol-1-yl)-3,5-difluorophenyl)piperidine-4-carbonyl)piperidin-4-yl)methyl)-2-(2,6-dioxopiperidin-3-yl)-6,7-dihydropyrrolo[3,4-f]isoindole-1,3(2H,5H)-dione] | B (“B”: 10-100 nM)
C[C@@H]1Cc2c([nH]c3ccccc23)[C@@H](c2c(F)cc(N3CCC4(CCN(C(=O)CN5Cc6cc7c(cc6C5)C(=O)N(C5CCC(=O)NC5=O)C7=O)CC4)C3)cc2F)N1CC(F)F (stereo partly drawn) [Compound B72, 6-(2-(2-(4-((1R,3R)-2-(2,2-difluoroethyl)-3-methyl-2,3,4,9-tetrahydro-1H-pyrido[3,4-b]indol-1-yl)-3,5-difluorophenyl)-2,8-diazaspiro[4.5]decan-8-yl)-2-oxoethyl)-2-(2,6-dioxopiperidin-3-yl)-6,7-dihydropyrrolo[3,4-f]isoindole-1,3(2H,5H)-dione] | A (“A”: <10 nM)
C[C@@H]1Cc2c([nH]c3ccccc23)[C@@H](c2c(F)cc(N3CCC(CN4CC5(CC(N6Cc7cc8c(cc7C6)C(=O)N(C6CCC(=O)NC6=O)C8=O)C5)C4)CC3)cc2F)N1CC(F)F (stereo partly drawn) [Compound B68, 6-(2-((1-(4-((1R,3R)-2-(2,2-difluoroethyl)-3-methyl-2,3,4,9-tetrahydro-1H-pyrido[3,4-b]indol-1-yl)-3,5-difluorophenyl)piperidin-4-yl)methyl)-2-azaspiro[3.3]heptan-6-yl)-2-(2,6-dioxopiperidin-3-yl)-6,7-dihydropyrrolo[3,4-f]isoindole-1,3(2H,5H)-dione] | A (“A”: <10 nM)
C[C@@H]1Cc2c([nH]c3ccccc23)[C@@H](c2c(F)cc(N3CCC4(CC3)CN(C(=O)CN3Cc5cc6c(cc5C3)C(=O)N(C3CCC(=O)NC3=O)C6=O)C4)cc2F)N1CC(F)F (stereo partly drawn) [Compound B51, 6-(2-(7-(4-((1R,3R)-2-(2,2-difluoroethyl)-3-methyl-2,3,4,9-tetrahydro-1H-pyrido[3,4-b]indol-1-yl)-3,5-difluorophenyl)-2,7-diazaspiro[3.5]nonan-2-yl)-2-oxoethyl)-2-(2,6-dioxopiperidin-3-yl)-6,7-dihydropyrrolo[3,4-f]isoindole-1,3(2H,5H)-dione] | A (“A”: <10 nM)
C[C@@H]1Cc2c([nH]c3ccccc23)[C@@H](c2c(F)cc(N3CCC(CN4CC(N5Cc6cc7c(cc6C5)C(=O)N(C5CCC(=O)NC5=O)C7=O)C4)CC3)cc2F)N1CC(F)F (stereo partly drawn) [Compound B63, 6-(1-((1-(4-((1R,3R)-2-(2,2-difluoroethyl)-3-methyl-2,3,4,9-tetrahydro-1H-pyrido[3,4-b]indol-1-yl)-3,5-difluorophenyl)piperidin-4-yl)methyl)azetidin-3-yl)-2-(2,6-dioxopiperidin-3-yl)-6,7-dihydropyrrolo[3,4-f]isoindole-1,3(2H,5H)-dione] | B (“B”: 10-100 nM)

Continued, values first:

Traditional Western Degradation Potency | Compound
C (“C”: >100 nM) | C[C@@H]1Cc2c([nH]c3ccccc23)[C@@H](c2ncc(C3=CCC(C(=O)N4CCC(N5Cc6cc7c(cc6C5)C(=O)N(C5CCC(=O)NC5=O)C7=O)CC4)CC3)cc2F)N1CC(C)(F)F (stereo partly drawn) [Compound B247, 6-(1-(4-(6-((1S,3R)-2-(2,2-difluoropropyl)-3-methyl-2,3,4,9-tetrahydro-1H-pyrido[3,4-b]indol-1-yl)-5-fluoropyridin-3-yl)cyclohex-3-ene-1-carbonyl)piperidin-4-yl)-2-(2,6-dioxopiperidin-3-yl)-6,7-dihydropyrrolo[3,4-f]isoindole-1,3(2H,5H)-dione]
C (“C”: >100 nM) | C[C@@H]1Cc2c([nH]c3ccccc23)[C@@H](c2c(F)cc(C3CCN(C[C@H]4CC[C@H](N5Cc6cc7c(cc6C5)C(=O)N(C5CCC(=O)NC5=O)C7=O)CC4)CC3)cc2F)N1CC(F)F (stereo partly drawn) [Compound B95, 6-((1R,4r)-4-((4-(4-((1R,3R)-2-(2,2-difluoroethyl)-3-methyl-2,3,4,9-tetrahydro-1H-pyrido[3,4-b]indol-1-yl)-3,5-difluorophenyl)piperidin-1-yl)methyl)cyclohexyl)-2-(2,6-dioxopiperidin-3-yl)-6,7-dihydropyrrolo[3,4-f]isoindole-1,3(2H,5H)-dione]
B (“B”: 10-100 nM) | C[C@@H]1Cc2c([nH]c3ccccc23)[C@@H](c2c(F)cc(N3CCCC(CN4CCC(C(=O)N5Cc6cc7c(cc6C5)C(=O)N(C5CCC(=O)NC5=O)C7=O)CC4)C3)cc2F)N1CC(F)F (stereo partly drawn) [Compound B189, 6-(1-((1-(4-((1R,3R)-2-(2,2-difluoroethyl)-3-methyl-2,3,4,9-tetrahydro-1H-pyrido[3,4-b]indol-1-yl)-3,5-difluorophenyl)piperidin-3-yl)methyl)piperidine-4-carbonyl)-2-(2,6-dioxopiperidin-3-yl)-6,7-dihydropyrrolo[3,4-f]isoindole-1,3(2H,5H)-dione]
B (“B”: 10-100 nM) | C[C@@H]1Cc2c([nH]c3ccccc23)[C@@H](c2cnc(N3CCC4(CC3)CC(CN3Cc5cc6c(cc5C3)C(=O)N(C3CCC(=O)NC3=O)C6=O)C4)nc2)N1CC(F)F (stereo partly drawn) [Compound B187, 6-((7-(5-((1R,3R)-2-(2,2-difluoroethyl)-3-methyl-2,3,4,9-tetrahydro-1H-pyrido[3,4-b]indol-1-yl)pyrimidin-2-yl)-7-azaspiro[3.5]nonan-2-yl)methyl)-2-(2,6-dioxopiperidin-3-yl)-6,7-dihydropyrrolo[3,4-f]isoindole-1,3(2H,5H)-dione]
A (“A”: <10 nM) | C[C@@H]1Cc2c([nH]c3ccccc23)[C@@H](c2cnc(N3CCC4(CC3)CN(C(=O)CN3Cc5cc6c(cc5C3)C(=O)N(C3CCC(=O)NC3=O)C6=O)C4)nc2)N1CC(F)F (stereo partly drawn) [Compound B221, 6-(2-(7-(5-((1R,3R)-2-(2,2-difluoroethyl)-3-methyl-2,3,4,9-tetrahydro-1H-pyrido[3,4-b]indol-1-yl)pyrimidin-2-yl)-2,7-diazaspiro[3.5]nonan-2-yl)-2-oxoethyl)-2-(2,6-dioxopiperidin-3-yl)-6,7-dihydropyrrolo[3,4-f]isoindole-1,3(2H,5H)-dione]

— patent publication US20260007681A1, “INDOLE DERIVATIVES AS ESTROGEN RECEPTOR DEGRADERS” (REGENTS OF THE UNIVERSITY OF MICHIGAN, priority 2022, published 2026)
